Results: ChEMBL document CHEMBL1671734, “An ertapenem-resistant extended-spectrum-beta-lactamase-producing Klebsiella pneumoniae clone carries a novel OmpK36 porin variant” (2010)
Converted amounts (≈) assume the structure as drawn.

Assays:
Format in all cases: functional
Klebsiella pneumoniae [1] = assay: Antimicrobial activity against ESBL-positive Klebsiella pneumoniae 71697 harboring porin OmpK36V mutant gene by microdilution method
Klebsiella pneumoniae [2] = assay: Antimicrobial activity against ESBL-positive Klebsiella pneumoniae 69928 harboring porin OmpK36V mutant gene by microdilution method
Klebsiella pneumoniae [3] = assay: Antimicrobial activity against ESBL-positive Klebsiella pneumoniae 69036 harboring porin OmpK36V mutant gene by microdilution method
Klebsiella pneumoniae [4] = assay: Antimicrobial activity against ESBL-positive Klebsiella pneumoniae 50748 harboring porin OmpK36 gene by microdilution method
Klebsiella pneumoniae [5] = assay: Antimicrobial activity against ESBL-positive Klebsiella pneumoniae 18260 harboring pSHA2-encoded porin OmpK36 gene by microdilution method
Klebsiella pneumoniae [6] = assay: Antimicrobial activity against ESBL-positive Klebsiella pneumoniae 17829 harboring pSHA2-encoded porin OmpK36 gene by microdilution method
Klebsiella pneumoniae [7] = assay: Antimicrobial activity against ESBL-positive Klebsiella pneumoniae 19039 harboring porin OmpK36V mutant gene by microdilution method
Klebsiella pneumoniae [8] = assay: Antimicrobial activity against ESBL-positive Klebsiella pneumoniae 18918 harboring porin OmpK36V mutant gene by microdilution method
Klebsiella pneumoniae [9] = assay: Antimicrobial activity against ESBL-positive Klebsiella pneumoniae 18567 harboring porin OmpK36V mutant gene by microdilution method
Klebsiella pneumoniae [10] = assay: Antimicrobial activity against ESBL-positive Klebsiella pneumoniae 18260 by microdilution method
Klebsiella pneumoniae [11] = assay: Antimicrobial activity against ESBL-positive Klebsiella pneumoniae 17834 harboring porin OmpK36V mutant gene by microdilution method
Klebsiella pneumoniae [12] = assay: Antimicrobial activity against ESBL-positive Klebsiella pneumoniae 17830 harboring porin OmpK36V mutant gene by microdilution method
Klebsiella pneumoniae [13] = assay: Antimicrobial activity against ESBL-positive Klebsiella pneumoniae 17829 by microdilution method
Klebsiella pneumoniae [14] = assay: Antimicrobial activity against ESBL-positive Klebsiella pneumoniae 17049 harboring porin OmpK36V mutant gene by microdilution method
Klebsiella pneumoniae [15] = assay: Antimicrobial activity against ESBL-positive Klebsiella pneumoniae 16855 harboring porin OmpK36 and OmpK35 genes by Etest by microdilution method
Klebsiella pneumoniae [16] = assay: Antimicrobial activity against ESBL-positive Klebsiella pneumoniae 6267 harboring porin OmpK36V mutant gene by microdilution method
Klebsiella pneumoniae [17] = assay: Antimicrobial activity against ESBL-positive Klebsiella pneumoniae 11932 harboring porin OmpK36 gene by microdilution method
Klebsiella pneumoniae [18] = assay: Antimicrobial activity against ESBL-positive Klebsiella pneumoniae 16830 harboring porin OmpK36 gene by microdilution method
Klebsiella pneumoniae [19] = assay: Antimicrobial activity against ESBL-positive Klebsiella pneumoniae 25008 by microdilution method
Klebsiella pneumoniae [20] = assay: Antimicrobial activity against ESBL-positive Klebsiella pneumoniae 26077 harboring porin OmpK36V mutant gene by microdilution method
Klebsiella pneumoniae [21] = assay: Antimicrobial activity against ESBL-positive Klebsiella pneumoniae 287942 harboring porin OmpK36 gene by microdilution method
Klebsiella pneumoniae [22] = assay: Antimicrobial activity against ESBL-positive Klebsiella pneumoniae 29459 harboring porin OmpK36 gene by microdilution method
Klebsiella pneumoniae [23] = assay: Antimicrobial activity against ESBL-positive Klebsiella pneumoniae 29830 harboring porin OmpK36V mutant gene by microdilution method
Klebsiella pneumoniae [24] = assay: Antimicrobial activity against ESBL-negative Klebsiella pneumoniae 299332 harboring porin OmpK36 gene by microdilution method
Klebsiella pneumoniae [25] = assay: Antimicrobial activity against ESBL-negative Klebsiella pneumoniae 30018 harboring porin OmpK35 gene by microdilution method
Klebsiella pneumoniae [26] = assay: Antimicrobial activity against ESBL-positive Klebsiella pneumoniae 31750 harboring porin OmpK36 gene by microdilution method

## C[C@@H](O)[C@H]1C(=O)N2C(C(=O)O)=C(S[C@@H]3CN[C@H](C(=O)Nc4cccc(C(=O)O)c4)C3)[C@H](C)[C@H]12 [ERTAPENEM]
Klebsiella pneumoniae [1]
  MIC: 8 µg/mL (≈ 16.8 µM)
Klebsiella pneumoniae [2]
  MIC: 6 µg/mL (≈ 12.6 µM)
Klebsiella pneumoniae [3]
  MIC: 6 µg/mL (≈ 12.6 µM)
Klebsiella pneumoniae [4]
  MIC: 0.25 µg/mL (≈ 0.526 µM)
Klebsiella pneumoniae [5]
  MIC: 16 µg/mL (≈ 33.6 µM)
Klebsiella pneumoniae [6]
  MIC: 16 µg/mL (≈ 33.6 µM)
Klebsiella pneumoniae [7]
  MIC: 8 µg/mL (≈ 16.8 µM)
Klebsiella pneumoniae [8]
  MIC: 8 µg/mL (≈ 16.8 µM)
Klebsiella pneumoniae [9]
  MIC: 6 µg/mL (≈ 12.6 µM)
Klebsiella pneumoniae [10]
  MIC: 128 µg/mL (≈ 269 µM)
Klebsiella pneumoniae [11]
  MIC: 6 µg/mL (≈ 12.6 µM)
Klebsiella pneumoniae [12]
  MIC: 8 µg/mL (≈ 16.8 µM)
Klebsiella pneumoniae [13]
  MIC: 128 µg/mL (≈ 269 µM)
Klebsiella pneumoniae [14]
  MIC: 8 µg/mL (≈ 16.8 µM)
Klebsiella pneumoniae [15]
  MIC: 0.094 µg/mL (≈ 0.198 µM)
Klebsiella pneumoniae [16]
  MIC: 4 µg/mL (≈ 8.41 µM)
Klebsiella pneumoniae [17]
  MIC: 0.19 µg/mL (≈ 0.4 µM)
Klebsiella pneumoniae [18]
  MIC: 0.125 µg/mL (≈ 0.263 µM)
Klebsiella pneumoniae [19]
  MIC: 16 µg/mL (≈ 33.6 µM)
Klebsiella pneumoniae [20]
  MIC: 6 µg/mL (≈ 12.6 µM)
Klebsiella pneumoniae [21]
  MIC: 0.19 µg/mL (≈ 0.4 µM)
Klebsiella pneumoniae [22]
  MIC: 0.25 µg/mL (≈ 0.526 µM)
Klebsiella pneumoniae [23]
  MIC: 6 µg/mL (≈ 12.6 µM)
Klebsiella pneumoniae [24]
  MIC: 0.016 µg/mL (≈ 0.0336 µM)
Klebsiella pneumoniae [25]
  MIC: 0.023 µg/mL (≈ 0.0484 µM)
Klebsiella pneumoniae [26]
  MIC: 0.125 µg/mL (≈ 0.263 µM)
